Legend:
bacterial strain LMB275 = assay: Sensitivity of the bacterial strain to antibiotics, disc diffusion method; format: cell-based, Aquabacterium strain LMB275; conditions: modified R2A agar, 48 and 72 h at 30° C.
Procedure: The sensitivity of the bacterial strain to antibiotics was tested by the disc diffusion method after spreading cell suspensions (8.0 McFarland) on modified R2A agar plates. The antibiotics and their concentration used on filter-paper discs for the susceptibility assay are listed in the species definition. The effect of antibiotics on cell growth was assessed after 48 and 72 h at 30° C.

[1] = test system: normal human epidermal keratinocytes (NHEK) stimulated by an inflammatory cytokine mix (IL-4+IL-13+IL-22+TNF-α); assay: Gene expression (RT-qPCR) in cytokine-stimulated normal human epidermal keratinocytes, in vitro model of chronic atopic dermatitis; format: cell-based
Procedure: The effects of the bacterial extracts prepared in example 3 (i.e., L0, BL0, S0 and ES0) on gene expression were assessed with normal human epidermal keratinocytes (NHEK) which have been stimulated by an inflammatory cytokine mix (IL-4+IL-13+IL-22+TNF-α), a particularly useful model representative of the chronic phase of atopic dermatitis.
Keratinocytes were seeded in 24-well plates and grown for 24 hours in growth medium with culture conditions at 37° C. and 5% C02. The growth medium comprised Keratinocyte SFM (Serum Free Medium) supplemented with Epidermal Growth Factor (EGF) 0.25 ng/ml, Pituitary extract (PE) 25 μg/ml and Gentamycin 25 μg/ml. The medium was then removed and replaced by assay medium containing either no added extract or compound (negative control), one of the bacterial extracts of example 3 (L0, BL0, S0 or ES0), or the reference compound (JAK Inhibitor | at 10 μM). Cells were then pre-incubated for 24 hours. The assay medium comprised Keratinocyte SFM supplemented with Gentamycin 25 μg/ml.
After pre-incubation, the assay medium was renewed, the mix of cytokines (IL-4+IL-13+TNF-α +IL-22, each at 10 ng/ml) added and the cells then incubated for 24 hours. Cytokine stimulation induces a phenotype in NHEK which is similar to the one observed during the chronic phase of atopic dermatitis (Bernard et al., 2012). In parallel, non-stimulated controls are performed.
All experiments were performed in triplicate (n=3).
Cells from the replicates of the same experimental condition were pooled.
Total RNA was extracted with TriPure Isolation Reagent® (Roche Molecular System Inc.) according to the supplier's instruction. The complementary DNA (cDNA) was synthetised by reverse transcription of total RNA in presence of oligo (dT) and Transcriptor Reverse Transcriptase (Roche Molecular System Inc.).
RT-qPCR (real time quantitative PCR) was used to analyse the expression of markers in total RNA extracted from the cell monolayers of each experimental condition. The LightCycler® system (Roche Molecular System Inc.) was used according to the supplier's instruction,
Two reference genes (GAPDH and RPS28) were used in the PCR array for data normalisation because of their constitutive expression. Consequently, the level of expression of the target markers was compared to the mean expression level of these 2 markers for all test conditions.
Different genes markers are reported: • barrier function, differentiation, lipid and desquamation markers: coding gene of Small Proline Rich Protein 1B (SPRR1B), coding gene of Kallikrein Related Peptidase 7 (KLK7), coding gene of Involucrin (IVL), coding gene of Caspase 14 (CASP14), coding gene of Sciellin (SCEL) and coding gene of sulfotransferase family, cytosolic, 2B, member 1 (SULT2B1); • antimicrobial and innate immunity markers: coding gene of serpin peptidase inhibitor, clade B, member 13 (SERPINB13), coding gene of calcium binding protein A7 (S100A7), coding gene of Toll-like receptor 2 (TLR2); • inflammation markers: coding gene of Chemokine (C-C motif) ligand 5 (CCL5), coding gene of Chemokine (C-C motif) ligand 27 (CCL27) and coding gene of interleukin 13 receptor, alpha 2 (IL13RA2).

[2] = NHEK, cytokine mix 10 ng/ml + JAK inhibitor I 10 μM, Mean HK normalisation
[3] = NHEK, cytokine mix 10 ng/ml + JAK inhibitor I 10 μM, Mean HK normalisation, 1440 min
[4] = cytokine-stimulated NHEK, JAK inhibitor I 10 μM
[5] = cytokine-stimulated NHEK, JAK inhibitor I 10 μM, listed as JAK Inhibitor I

## O=C(N[C@H](CO)[C@H](O)c1ccc([N+](=O)[O-])cc1)C(Cl)Cl [chloramphenicol]
Bacterial strain LMB275; disc 30 μg
  sensitivity of the bacterial strain to the antibiotic: sensitive

## CC1(C)S[C@@H]2[C@H](NC(=O)[C@H](N)c3ccccc3)C(=O)N2[C@H]1C(=O)O [ampicillin]
Bacterial strain LMB275; disc 10 μg
  sensitivity of the bacterial strain to the antibiotic: resistant

## polymixin B
Bacterial strain LMB275; disc 300 UI
  sensitivity of the bacterial strain to the antibiotic: resistant

## CN[C@H](CC(C)C)C(=O)N[C@H]1C(=O)N[C@@H](CC(N)=O)C(=O)N[C@H]2C(=O)N[C@H]3C(=O)N[C@H](C(=O)N[C@H](C(=O)O)c4cc(O)cc(O)c4-c4cc3ccc4O)[C@H](O)c3ccc(c(Cl)c3)Oc3cc2cc(c3O[C@@H]2O[C@H](CO)[C@@H](O)[C@H](O)[C@H]2O[C@H]2C[C@](C)(N)[C@H](O)[C@H](C)O2)Oc2ccc(cc2Cl)[C@H]1O [vancomycin]
Bacterial strain LMB275; disc 30 μg
  sensitivity of the bacterial strain to the antibiotic: sensitive

## NC[C@H]1O[C@H](O[C@H]2[C@H](O)[C@@H](O[C@H]3O[C@H](CO)[C@@H](O)[C@H](N)[C@H]3O)[C@H](N)C[C@@H]2N)[C@H](O)[C@@H](O)[C@@H]1O [kanamycin]
Bacterial strain LMB275; disc 30 μg
  sensitivity of the bacterial strain to the antibiotic: sensitive

## [H]/N=C(/N)N[C@H]1[C@H](O)[C@@H](O)[C@H](O[C@@H]2O[C@@H](C)[C@](O)(C=O)[C@H]2O[C@@H]2O[C@@H](CO)[C@H](O)[C@@H](O)[C@@H]2NC)[C@@H](N/C(N)=N\[H])[C@@H]1O [streptomycin]
Bacterial strain LMB275; disc 10 μg
  sensitivity of the bacterial strain to the antibiotic: sensitive

## CN(C)[C@@H]1C(=O)C(C(N)=O)=C(O)[C@@]2(O)C(=O)C3=C(O)c4c(O)cccc4[C@@](C)(O)[C@H]3C[C@@H]12 [tetracyclin]
Bacterial strain LMB275; disc 30 μg
  sensitivity of the bacterial strain to the antibiotic: sensitive

## CC1(C)S[C@@H]2[C@H](NC(=O)[C@H](N)c3ccc(O)cc3)C(=O)N2[C@H]1C(=O)O [amoxicillin]
Bacterial strain LMB275; disc 30 μg
  sensitivity of the bacterial strain to the antibiotic: resistant

## CC(C)(C)c1nc2c3cc[nH]c(=O)c3c3cc(F)ccc3c2[nH]1 [JAK inhibitor I]
[1]; [2]
  SPRR1B gene expression: 557 % control
  SULT2B1 gene expression: 231 % control
[1]; [3]
  CASP14 gene expression: 199 % control
  CCL5 gene expression: 23 % control
  CCL27 gene expression: 72 % control
  IL13RA2 gene expression: 12 % control
  IVL gene expression: 986 % control
  KLK7 gene expression: 146 % control
  S100A7 gene expression: 94 % control
  SCEL gene expression: 141 % control
  SERPINB13 gene expression: 27 % control
  TLR2 gene expression: 21 % control
[1]; [4]
  expression of antimicrobial and innate immunity markers (in words): decrease
  expression of inflammation markers (in words): decrease
  expression of keratinocyte differentiation markers (in words): increase
[1]; [5]
  expression of antimicrobial and innate immunity markers (in words): down-regulating
  expression of inflammation markers (in words): down-regulating

## CC1(C)S[C@@H]2[C@H](NC(=O)Cc3ccccc3)C(=O)N2[C@H]1C(=O)O [penicillin]
Bacterial strain LMB275; disc 10 UI
  sensitivity of the bacterial strain to the antibiotic: resistant

## CC1COc2c(N3CCN(C)CC3)c(F)cc3c(=O)c(C(=O)O)cn1c23 (centres unmarked) [ofloxacin]
Bacterial strain LMB275; disc 5 μg
  sensitivity of the bacterial strain to the antibiotic: sensitive

## O=C(O)c1cn(C2CC2)c2cc(N3CCNCC3)c(F)cc2c1=O [ciprofloxacin]
Bacterial strain LMB275; disc 5 μg
  sensitivity of the bacterial strain to the antibiotic: sensitive

## CO[C@H]1/C=C/O[C@@]2(C)Oc3c(C)c(O)c4c(O)c(c(/C=N/N5CCN(C)CC5)c(O)c4c3C2=O)NC(=O)/C(C)=C\C=C\[C@H](C)[C@H](O)[C@@H](C)[C@@H](O)[C@@H](C)[C@H](OC(C)=O)[C@@H]1C [rifampicin]
Bacterial strain LMB275; disc 30 μg
  sensitivity of the bacterial strain to the antibiotic: sensitive

## CC[C@H]1OC(=O)[C@H](C)[C@@H](O[C@H]2C[C@@](C)(OC)[C@@H](O)[C@H](C)O2)[C@H](C)[C@@H](O[C@@H]2O[C@H](C)C[C@H](N(C)C)[C@H]2O)[C@](C)(O)C[C@@H](C)C(=O)[C@H](C)[C@@H](O)[C@]1(C)O [erythromycin]
Bacterial strain LMB275; disc 15 μg
  sensitivity of the bacterial strain to the antibiotic: sensitive

## CO/N=C(\C(=O)N[C@@H]1C(=O)N2C(C(=O)O)=C(COC(C)=O)CS[C@H]12)c1csc(N)n1 [cefotaxim]
Bacterial strain LMB275; disc 30 μg
  sensitivity of the bacterial strain to the antibiotic: resistant

## C[C@@H](O)[C@H]1C(=O)N2C(C(=O)O)=C(SCCN=CN)C[C@H]12 [imipenem]
Bacterial strain LMB275; disc 10 μg
  sensitivity of the bacterial strain to the antibiotic: sensitive

From patent US20260286287A1, “NOVEL BACTERIAL STRAIN USEFUL FOR TREATING CUTANEOUS INFLAMMATION” (PIERRE FABRE DERMO-COSMETIQUE, priority 2023, published 2026)
